Source: patent US8575135B2 (Gilead Sciences, Inc., priority 2011, dated 2013)
Read-outs that look alike come from different tables or passages of the source.

Key:
[1] = system: stable HCV 2a JFH-1 Rluc replicon cells (L31 present in NS5A); test: microbe, parasite or virus in culture; format: cell-based; conditions: Hepatitis C virus
[2] = system: stable HCV 1a RLuc replicon cells (genotype 1a H77 replicon); test: microbe, parasite or virus in culture; format: cell-based; conditions: Hepatitis C virus
[3] = system: stable HCV 1b RLuc replicon cells (genotype 1b Con1 replicon); test: microbe, parasite or virus in culture; format: cell-based; conditions: Hepatitis C virus, read-out: 1b (nM)
[4] = system: 1a Pi-Rluc replicon with Q30R in genotype 1a NS5A; test: microbe, parasite or virus in culture; format: cell-based, HCV; conditions: Hepatitis C virus
How it was run: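 Q30R introduced by site-directed mutagenesis into genotype 1a Pi-RLuc replicon; RNA transiently transfected into Huh-7-derived cured-51 cells.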

[5] = system: NS5A chimeric genotype 1b Con1 replicon with genotype 3a S52 strain NS5A gene; test: microbe, parasite or virus in culture; format: cell-based, HCV; conditions: Hepatitis C virus
How it was run: (§1)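 Genotype 3a (S52) and 4a (ED43) NS5A chimeras use 1b Con1 Pi-RLuc replicons, transfected transiently; 2b MD2b-1 NS5A chimera (M31) uses 2a JFH-1 RLuc-Neo replicon, transient or stable.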

[6] = system: NS5A chimeric genotype 2a JFH-1 replicon with genotype 2a J6 strain NS5A gene (M31 present); test: microbe, parasite or virus in culture; format: cell-based, HCV; conditions: Hepatitis C virus
[7] = system: NS5A chimeric genotype 2a JFH-1 replicon with genotype 2b MD2b-1 strain NS5A gene (M31 present); test: microbe, parasite or virus in culture; format: cell-based, HCV; conditions: Hepatitis C virus
How it was run: as §1

[8] = IV and PO single dose pharmacokinetic studies in SD rats; format: in vivo; conditions: male, Sprague-Dawley, rat, plasma, IV infusion 1 mg/kg vs oral gavage 2 mg/kg, read-out: Rat % F
Method: IV and PO Single Dose Pharmacokinetic Studies in SD Rats: The pharmacokinetics of selected compounds was characterized in male Sprague-Dawley (SD) rats (250-300g). […] The intravenous (IV) dosing vehicle was 5% ethanol, 35% polyethylene glycol 400 (PEG 400) and 60% water pH 2.0. […] Serial blood samples (approximately 0.3 mL each) were collected from jugular vein or other suitable vein at specified time points. […] The blood samples were collected into Vacutainer™ tubes containing EDTA-K3 as the anti-coagulant and were centrifuged at approximately 4° C. to obtain plasma. The plasma samples were stored at −20° C. until analysis by LC/MS/MS. A bioanalytical method utilizing high performance liquid chromatography coupled to tandem mass spectrometry (LC/MS/MS) was developed for analysis of the selected compound in rat plasma. Detection was performed using selected reaction monitoring (SRM); […] Standard curve and quality control samples were prepared in male rat plasma and processed in the same way as the test samples to generate quantitative data. Pharmacokinetic parameters were generated using non-compartmental pharmacokinetic analysis (Phoenix WinNonlin, version 6.3). Values below the lower limit of quantification (LLOQ) were assigned a value of zero if predose and treated as missing thereafter. Area under the curve (AUC) was calculated using the linear trapezoidal rule. The oral bioavailability (% F) was determined by comparison of the area under the curve (AUC) of the compound and/or a metabolite generated in plasma following oral administration to that generated following intravenous administration.

[9] = system: NS5A chimeric genotype 1b Con1 replicon with genotype 4a ED43 strain NS5A gene; test: microbe, parasite or virus in culture; format: cell-based, HCV; conditions: Hepatitis C virus

Structure (SMILES)	EC50 ([1]; read-out: 2a JFH)	EC50 ([1]; read-out: 2a JFH (nM))	EC50 ([2]; read-out: 1a)	EC50 ([2]; read-out: 1a (nM))	EC50 [3]	EC50 ([4]; read-out: 1a Q30R)	EC50 ([4]; read-out: 1a Q30R (nM))	EC50 ([5]; read-out: 3a)	EC50 ([5]; read-out: 3a (nM))	EC50 ([6]; read-out: 2a J6)	EC50 ([6]; read-out: 2a Jb (t) (nM))	EC50 ([7]; read-out: 2b)	EC50 ([7]; read-out: 2b (t) (nM))	bioavailability [8]	EC50 ([9]; read-out: 4a)	EC50 ([9]; read-out: 4a (s) (nM))	EC50 ([9]; read-out: 4a (t) (nM))	EC50 ([6]; read-out: 2a J6 (s) (nM))	EC50 ([7]; read-out: 2b (s) (nM))
CCC(C)[C@H](NC(=O)OC)C(=O)N1C[C@@H](C)CC1c1ncc(-c2ccc3c(c2)COc2cc4c(ccc5nc([C@@H]6CC(COC)CN6C(=O)[C@H](NC(=O)OC)c6ccccc6)[nH]c54)cc2-3)[nH]1 (stereo in doubt) [Example QB, Methyl {(1R)-2-[(2S,4S)-2-(9-{2-[(2S,4S)-1-{(2S,3R)-2-[(methoxycarbonyl)amino]-3-methylpentanoyl}-4-methylpyrrolidin-2-yl]-1H-imidazol-5-yl}-1,11-dihydroisochromeno[4′,3′:6,7]naphtho[1,2-d]imidazol-2-yl)-4-(methoxymethyl)pyrrolidin-1-yl]-2-oxo-1-phenylethyl}carbamate]	< 1 nM	0.008 nM	< 1 nM	0.011 nM	0.011 nM	< 1 nM	0.029 nM	< 1 nM	0.028 nM	< 1 nM	0.021 nM	< 1 nM	0.022 nM	9.56%					
COC[C@H]1C[C@@H](c2nc3ccc4cc5c(cc4c3[nH]2)OCc2cc(-c3cnc([C@@H]4CC[C@H](C)N4C(=O)[C@@H](NC(=O)OC)C(C)C)[nH]3)ccc2-5)N(C(=O)[C@@H](NC(=O)OC)C(C)C)C1 [Example MP, methyl{(2S)-1-[(2S,5S)-2-(5-{2-[(2S,4S)-1-{(2S)-2-[(methoxycarbonyl)amino]-3-methylbutanoyl}-4-methoxymethylpyrrolidin-2-yl]-1,11-dihydroisochromeno[4′,3′:6,7]naphtho[1,2-d]imidazol-9-yl}-1H-imidazol-2-yl)-5-methylpyrrolidin-1-yl]-3-methyl-1-oxobutan-2-yl}carbamate]	< 1 nM	0.004 nM	< 1 nM	0.006 nM		< 1 nM	0.031 nM	< 1 nM	0.015 nM	< 1 nM	0.039 nM	< 1 nM	0.032 nM	24.2%	< 1 nM	0.013 nM	0.015 nM	0.336 nM	0.184 nM
COC(=O)N[C@H](C(=O)N1[C@@H](C)CC[C@H]1c1ncc(-c2ccc3c(c2)COc2cc4c(ccc5nc([C@@H]6CC[C@H](C)N6C(=O)[C@@H](NC(=O)OC)[C@@H](C)OC)[nH]c54)cc2-3)[nH]1)[C@@H](C)OC [Example NI, Methyl [(2S,3R)-3-methoxy-1-{(2S,5S)-2-[9-(2-{(2S,5S)-1-[N-(methoxycarbonyl)-O-methyl-L-threonyl]-5-methylpyrrolidin-2-yl}-1H-imidazol-5-yl)-1,11-dihydroisochromeno[4′,3′:6,7]naphtho[1,2-d]imidazol-2-yl]-5-methylpyrrolidin-1-yl}-1-oxobutan-2-yl]carbamate]	< 1 nM	0.007 nM	< 1 nM	0.015 nM		< 1 nM	0.059 nM	< 1 nM	0.022 nM	< 1 nM	0.026 nM	< 1 nM	0.019 nM	24.1%	< 1 nM		0.02 nM	0.169 nM	0.054 nM
COC[C@H]1C[C@@H](c2nc3ccc4cc5c(cc4c3[nH]2)OCc2cc(-c3cnc([C@@H]4CC[C@H](C)N4C(=O)[C@@H](NC(=O)OC)C(C)C)[nH]3)ccc2-5)N(C(=O)[C@H](NC(=O)OC)c2ccccc2)C1 [Example NP, Methyl {(2S)-1-[(2S,5S)-2-(5-{2-[(2S,4S)-1-{(2R)-2-[(methoxycarbonyl)amino]-2-phenylacetyl}-4-(methoxymethyl)pyrrolidin-2-yl]-1,11 dihydroisochromeno[4′,3′:6,7]naphtho[1,2-d]imidazol-9-yl}-1H-imidazol-2-yl)-5-methylpyrrolidin-1-yl]-3-methyl-1-oxobutan-2-yl}carbamate]	< 1 nM	0.007 nM	< 1 nM	0.014 nM		< 1 nM	0.032 nM	< 1 nM	0.02 nM	< 1 nM	0.01 nM	< 1 nM	0.011 nM	26.1%	< 1 nM	0.028 nM		0.096 nM	0.043 nM
COC[C@H]1C[C@@H](c2nc3ccc4cc5c(cc4c3[nH]2)OCc2cc(-c3cnc([C@@H]4C[C@H](C)CN4C(=O)[C@H](NC(=O)OC)c4ccccc4)[nH]3)ccc2-5)N(C(=O)[C@@H](NC(=O)OC)C(C)C)C1 [Example PF, methyl {1-[2-{9-[2-(1-{[(methoxycarbonyl)amino](phenyl)acetyl}-4-methylpyrrolidin-2-yl)-1H-imidazol-5-yl]-1,11-dihydroisochromeno[4′,3′:6,7]naphtho[1,2-d]imidazol-2-yl}-4-(methoxymethyl)pyrrolidin-1-yl]-3-methyl-1-oxobutan-2-yl}carbamate]	< 1 nM	0.014 nM	< 1 nM	0.032 nM		< 1 nM	0.034 nM	< 1 nM	0.072 nM	< 1 nM	0.025 nM	< 1 nM	0.023 nM	4.3%	< 1 nM	0.018 nM	0.05 nM	0.127 nM	0.117 nM
COC[C@H]1C[C@@H](c2ncc(-c3ccc4c(c3)COc3cc5c(ccc6nc([C@@H]7CC[C@H](C)N7C(=O)[C@@H](NC(=O)OC)[C@@H](C)OC)[nH]c65)cc3-4)[nH]2)N(C(=O)[C@@H](NC(=O)OC)C(C)C)C1 [Example PI, methyl {(2S)-1-[(2S,4S)-2-(5-{2-[(2S,5S)-1-{(2S,3R)-3-methoxy-2-[(methoxycarbonyl)amino]butanoyl}-5-methylpyrrolidin-2-yl]-1,11-dihydroisochromeno[4′,3′:6,7]naphtho[1,2-d]imidazol-9-yl}-1H-imidazol-2-yl)-4-(methoxymethyl)pyrrolidin-1-yl]-3-methyl-1-oxobutan-2-yl}carbamate]	< 1 nM	0.02 nM	< 1 nM	0.031 nM	0.039 nM	< 1 nM	0.094 nM	< 1 nM	0.065 nM	< 1 nM	0.129 nM	< 1 nM	0.09 nM	8.7%					
COC[C@H]1C[C@@H](c2ncc(-c3ccc4c(c3)COc3cc5c(ccc6nc([C@@H]7CC[C@H](C)N7C(=O)[C@@H](NC(=O)OC)C(C)C)[nH]c65)cc3-4)[nH]2)N(C(=O)[C@H](NC(=O)OC)c2ccccc2)C1 [Example PY, Methyl {(2S)-1-[(2S,5S)-2-(9-{2-[(2S,4S)-1-{(2R)-2-[(methoxycarbonyl)amino]-2-phenylacetyl}-4-(methoxymethyl)pyrrolidin-2-yl]-1H-imidazol-5-yl}-1,11-dihydroisochromeno[4′,3′:6,7]naphtho[1,2-d]imidazol-2-yl)-5-methylpyrrolidin-1-yl]-3-methyl-1-oxobutan-2-yl}carbamate]	< 1 nM	0.006 nM	< 1 nM	0.012 nM		< 1 nM	0.013 nM	< 1 nM	0.017 nM	< 1 nM	0.009 nM	< 1 nM	0.007 nM	27.7%	< 1 nM	0.018 nM		0.098 nM	0.03 nM
